# Test results: patent publication EP0186275A2, “2-Substituted amino-4(1H)-pyrimidone derivatives, their production, and medical compositions containing them” (YAMANOUCHI PHARMACEUTICAL CO. LTD., priority 1984, dated 1986)
# Counter-ions that a name gives are not always drawn.
# Key:
# Male Wistar rats [1] = test: Gastric secretion inhibiting activity (pylorus-ligated rat, 4hr. shay rat); type: in vivo
# Experimental: 2) Gastric secretion inhibiting activity: Male Wistar rats (about 200 g) were fasted but allowed free access to water for 24 hours prior to the experiment. The pylorus was ligated after abdominal midline incision under ether anesthesia. Four hours later, the animals were killed for the collection of gastric juice. The test compounds were given p.o. 1 hour before the pylorus ligation. Gastric juice (0.5 ml) was titrated against 0.05 N NaOH up to pH 7.0 to determine acid concentration using an automatic titrator (Hiranuma Sangyo Co., Comtite 7). The total acid output was calculated as the product of gastric volume by acid concentration.
# Male Wistar rats [2] = test: Gastric cytoprotection (ethanol ulcer rat); type: in vivo
# Experimental: 3) Gastric cytoprotection: Male Wistar rats (about 200 […]) were starved for 24 hours and deprived of water for 18 hours prior to the experiment. Absolute ethanol (1 ml/rat) was given orally to rats one hour after p.o. administration of the test compounds. One hour later, animals were sacrificed for the measurement of gastric lesions (mm^2).
# histamine H2-receptor = target: T1, histamine H2-receptor (Cavia porcellus, UniProt P47747); test: H2-Blocking activity (isolated guinea pig atrium, chronotropic response to histamine); type: cell-based; details: isolated guinea pig atrium; test drugs 30 min. before 5 x 10^-6M histamine; dose producing 50% blockade of chronotropic response; read-out: 1)H2-bloc-kade guinea pig atrium ED50
# T1 construct: The atrium isolated from quinea-pigs was mounted in an organ bath; from tissue; host or cells: isolated guinea pig atrium
# Experimental: In addition, the experiments were performed using a known compound, TZU-0460, i. e., N-[3-(3-(1-piperi- dinylmethyl)phenoxy]propyl]acetoxyacetamide hydrochloride shown by the following formula [drawing 9] HC1 disclosed in European Patent No. 24,510. • 1. Experimental procedure • 1) H2-Blocking activity:
# The atrium isolated from quinea-pigs was mounted in an organ bath containing Krebs-Henseleit solution gassed with 95% 02 and 5% C02 at 37°C. The spontaneous movement of the atrium was recorded through a strain gauge (Nihon Koden, SB-1T) on a polygraph (Nihon Koden, RM-6200). The tissue was exposed to test drugs 30 min. before treatment with 5 x 10-^6M histamine. The dose of test drugs producing 50%blockade of chronotropic response to histamine was obtained from each preparation.
# Acute toxicity LD50 iv = details: in vivo, species not given
# [3] = Rattus norvegicus, po, 4 h; p.o. 1 hour before pylorus ligation; gastric juice collected four hours later; total acid output; read-out: 2)Anti-secretion 4hr. shay rat ED50 (mg/kg p.o.)
# [4] = po, 1 h, p.o., absolute ethanol (1 ml/rat) orally one hour after test compound; gastric lesions measured one hour later; read-out: 3)Cytopro-tection ethanol ulcer rat ED50(mg/kg p.o.)
# T1 sequence (P47747 whole entry): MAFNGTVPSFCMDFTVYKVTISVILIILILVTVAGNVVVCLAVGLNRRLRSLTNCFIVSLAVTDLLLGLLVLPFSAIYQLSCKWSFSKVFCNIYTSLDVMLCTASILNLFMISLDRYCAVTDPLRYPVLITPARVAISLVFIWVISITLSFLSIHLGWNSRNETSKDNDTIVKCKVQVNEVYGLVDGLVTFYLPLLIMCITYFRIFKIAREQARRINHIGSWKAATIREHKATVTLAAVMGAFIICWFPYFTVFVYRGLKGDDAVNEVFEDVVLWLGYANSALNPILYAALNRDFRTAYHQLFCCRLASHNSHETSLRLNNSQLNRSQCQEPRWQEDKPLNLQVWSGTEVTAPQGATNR
IC50 (histamine H2-receptor),Structure (SMILES),ED50 (Male Wistar rats [1]; [3]),ED50 (Male Wistar rats [2]; [4]),LD50 (Acute toxicity LD50 iv),"ED50 (Male Wistar rats [1]; Rattus norvegicus, po, 4 h, read-out: 2)Anti-secretion 4hr. shay rat ED50 (mg/kg p.o.))","ED50 (Male Wistar rats [2]; Rattus norvegicus, po, 1 h, read-out: 3)Cytopro-tection ethanol ulcer rat ED50(mg/kg p.o.))"
> 1 µM,"CCCCCCCc1c(C)[nH]c(NCCCOc2cccc(CN3CCCCC3)c2)nc1=O [Example 1, 5-heptyl-6-methyl-2-[3-[m-(piperidinomethyl)phenoxy]-propylamino]-4(lH)-pyrimidone di-hydrochloride]",2.6 mg/kg,6 mg/kg,–,–,–
8.9 µM,"CCCCCc1c(CC)[nH]c(NCCCOc2cccc(CN3CCCCC3)c2)nc1=O [Example 5, 6-Ethyl-5-pentyl-2-f3-[m-(piperidinomethyl)phenoxy]-propylamino]-4(lH)-pyrimidone dihydrochloride-dihydrate]",19 mg/kg,9.6 mg/kg,–,–,–
0.51 µM,"CCCc1c(C)[nH]c(NCCCOc2cccc(CN3CCCCC3)c2)nc1=O [Example 7, 6-Methyl-2-[3-[m-(piperidinomethyl)phenoxy]propylamino]-5-propyl-4(lH)-pyrimidone]",6.1 mg/kg,6.6 mg/kg,–,–,–
0.21 µM,C#CCc1c(C)[nH]c(NCCCOc2cccc(CN3CCCCC3)c2)nc1=O [Example 9],3.1 mg/kg,23.3 mg/kg,–,–,–
0.82 µM,"CC=CCc1c(C)[nH]c(NCCCOc2cccc(CN3CCCC3)c2)nc1=O [Example 14, 5-(2-Butenyl)-6-methyl-2-[3-[m-(pyrrolidinylmethyl)-phenoxy]propylamino]-4(1H)-pyrimidone]",9.9 mg/kg,41.4 mg/kg,–,–,–
0.4 µM,"CCSCCc1c(C)[nH]c(NCCCOc2cccc(CN3CCCCC3)c2)nc1=O [Example 15, 5-(2-Ethylthioethyl)-6-methyl-2-[3-[m-(piperidinomethyl)phenoxy]propylamino]-4(lH)-pyrimidone]",10.9 mg/kg,25.4 mg/kg,–,–,–
0.36 µM,"CC(C)=CCc1c(C)[nH]c(NCCCOc2cccc(CN3CCCCC3)c2)nc1=O [Example 26, 6-methyl-5-(3-methyl-2-butenyl)-2-[3-[m-(piperidinomethyl)phenoxy]propylamino]-4(1H)-pyrimidone]",5.2 mg/kg,20.5 mg/kg,–,–,–
0.17 µM,"C=CCc1c(C)[nH]c(NCCCOc2cccc(CN3CCCC(C)C3)c2)nc1=O (centres unmarked) [Example 30, 5-(2-Propenyl)-6-me thyl-2-[3-[m-(3-methylpiperidi-nomethyl)phenoxy]propylamino]-4(lH)-pyrimidone]",18 mg/kg,17 mg/kg,–,–,–
0.29 µM,"C=C(C)Cc1c(C)[nH]c(NCCCOc2cccc(CN3CCCC(C)C3)c2)nc1=O (centres unmarked) [Example 31, 6-Methyl-2-[3-[m-(3-methylpiperidinomethyl)pheno- : xy]propylamino]-5-(2-methyl-2-propenyl)-4(lH)-pyrimidone]",30.1 mg/kg,13.6 mg/kg,–,–,–

Structure (SMILES),IC50 (histamine H2-receptor),ED50 (Male Wistar rats [1]; [3]),ED50 (Male Wistar rats [2]; [4]),LD50 (Acute toxicity LD50 iv),"ED50 (Male Wistar rats [1]; Rattus norvegicus, po, 4 h, read-out: 2)Anti-secretion 4hr. shay rat ED50 (mg/kg p.o.))","ED50 (Male Wistar rats [2]; Rattus norvegicus, po, 1 h, read-out: 3)Cytopro-tection ethanol ulcer rat ED50(mg/kg p.o.))"
"CCCCc1c(C)[nH]c(NCCCOc2cccc(CN3CCCCC3)c2)nc1=O [Example 4, 5-butyl-6-methyl-2-L3-[m-(piperidinomethyl)phenoxy]propylamino]-4(1H)-pyrimidone dihydrochloride]",0.42 µM,6.4 mg/kg,5.8 mg/kg,61.1 mg/kg,–,–
"CC=CCc1c(C)[nH]c(NCCCOc2cccc(CN3CCCC(C)C3)c2)nc1=O (centres unmarked) [Example 12, 5-(2-Butenyl)-6-methyl-2-[3-[m-(3-methylpiperidino-methyl)phenoxy]propylamino]-4(1H)-pyrimidone]",0.61 µM,16.4 mg/kg,6.7 mg/kg,42.5 mg/kg,–,–
"CC(=O)OCC(=O)NCCCOc1cccc(CN2CCCCC2)c1 [TZU-0460, N-[3-(3-(1-piperi-dinylmethyl)phenoxy]propyl]acetoxyacetamide hydrochloride, reference compound]",0.37 µM,–,–,–,35.1 mg/kg,46.4 mg/kg
